Measurements: patent US7265155B2 (NBS Pharmaceuticals, Inc., priority 1996, dated 2007)
“Also recorded” adds a separate entry of the source.

What was measured:
amygdala-kindled rat = experiment: Anticonvulsant activity in the fully amygdala-kindled rat; format: in vivo; conditions: oral dosing, sixty minutes before stimulation
Description: Isovaleramide was evaluated for its ability to block the expression of amygdala-kindled seizures in fully kindled rats. Isovaleramide was evaluated for its ability to block the kindled motor seizure (seizure scores of 4 and 5) and limbic behavioral seizures (seizure score between 1-3) as well as to affect changes in afterdischarge duration.
Adult, male Sprague-Dawley rats weighing at least 230 gr were implanted with a teflon-coated bipolar electrode sterotaxically placed in the anterior basolateral nucleus of the amygdala under ketamine and xylazine anesthesia. The electrode was implanted at the following coordinates with Bregma as zero: AP-2.2 mm, ML-4.7 mm, DV-8.7 mm. After a one-week recovery period, animals were kindled to Stage 5 behavioral seizures using a stimulus consisting of a 50 Hz, 1 sec train of 1 ms biphasic 150 uA pulses that were delivered once daily until 10 consecutive stage 5 seizures were evoked. Testing of isovaleramide was initiated after a one-week, stimulus-free period. On the compound test day, rats displaying a stage 5 seizure were divided into multiple treatment groups (i.e., vehicle control and isovaleramide treatment). Sixty minutes after oral dosing, individual rats received a 300 uA, 1 sec duration stimulation and their seizure score and afterdischarge duration recorded. Seizure score was classified according to Racine (Electroencephalogr. Clin. Neurophysiol. 32:281-294, (1972): stage 0: no abnormal behavior; stage 1: mouth or facial movements; stage 2: mouth or facial movements and head nodding; stage 3: stage 2 and forelimb clonus; stage 4: stage 3 and rearing; stage 5: stage 4 and falling. A score of 2-3 represents a focal seizure while a score of 4-5 represents secondarily generalized seizures. Afterdischarge duration was the total duration of the amygdala electroencephalogram spikes with an amplitude of at least twice the amplitude of the prestimulus recording and a frequency greater than 1/sec.

chronic spinalized rat = experiment: Flexor reflex (EMG) in the chronic spinalized rat; format: in vivo; conditions: 300 mg/kg p.o.; 30, 60, 90 and 120 minutes post-administration
Description: With reference to FIG. 3, the polysynaptic flexor-reflex responses, to test stimuli which activate high-threshold afferents, were recorded as EMG activity from the ipsilateral hamstring muscle. Supramaximal electric shocks were applied to the hindpaw, and recording electrodes were placed in the biceps femoris semitendinosus muscle. Five sets of stimuli were made at each time point. The flexor reflex was recorded, in both the pre-drug and the post-drug periods, every 30 minutes once a stable baseline response was achieved. See Hao et al., Eur. J. Pharmacol. 191: 407 (1990).
Thus, the responses were determined in spinalized rats by observing the flexor-reflex response (FIG. 3) before treatment and at each of 30, 60, 90, and 120 minutes following administration of isovaleramide (300 mg/kg p.o.), baclofen (10 mg/kg s.c.) and vehicle (water, 12 ml/kg p.o.), respectively.
In FIG. 4, the responses from FIG. 3 and additional doses of isovaleramide and baclofen are converted to a total-area-under-the-curve format, covering the entire, two-hour measurement period. […] Between the drug-treated groups, no differences were found in total reduction of the flexor reflex over the two-hour period (pairwise multiple comparison, Student-Newman-Keuls method).

[1] = in vivo; cited from earlier work

CC(C)CC(N)=O [Isovaleramide, isovaleramide]
afterdischarge duration (amygdala-kindled rat): decreased | generalized seizure responses of fully kindled rats (amygdala-kindled rat): effective in reducing in a dose-dependent manner the generalized seizure responses; also recorded: effective in reducing, in a dose-dependent manner, the generalized seizure responses | mean seizure score (amygdala-kindled rat): decreased | magnitude of the flexor reflex (chronic spinalized rat): reduce the magnitude of the flexor-reflex responses, at all time points; also recorded: significant decrease in the magnitude of the flexor reflex, comparable to that observed with baclofen | anxiolytic properties [1]: clinically useful anxiolytic properties
